Earlier results on five molecules are cited in patent publication US20030100464A1, “Dishwashing compositions containing alkylbenzenesulfonate surfactants” (priority 2001, published 2003).

First the molecules themselves.
B1: D96L: D96L lipolytic enzyme variant of the native lipase derived from Humicola lanuginosa (protein, UniProt O59952 23-291, looked up, variant D96L)
Lipase: EVSQDLFNQFNLFAQYSAAAYCGKNNDAPAGTNITCTGNACPEVEKADATFLYSFEDSGVGDVTGFLALDNTNKLIVLSFRGSRSIENWIGNLNFLLKEINDICSGCRGHDGFTSSWRSVADTLRQKVEDAVREHPDYRVVFTGHSLGGALATVAGADLRGNGYDIDVFSYGAPRVGNRAFAEFLTVQTGGTLYRITHTNDIVPRLPPREFGYSHSSPEYWIKSGTLVPVTRNDIVKIEGIDATGGNNQPNIPDIPAHLWYFGLIGTCL

The conditions of the first data set: enzymes compared at 0.075 to 2.5 mg protein per liter.
In the case of B1, the “improvement of lard stain removal efficiency, factor over the wild-type lipase” value is listed as 4.4.

For the next data set the following is noted: all-aqueous solution at 25° C., ionic strength 0.1 to 0.5 M.
`NCCCCCCN` [1,6 hexane diamine]: the pK1 is on record as 11 and the pK2 is reported as 10.

Regarding `NCCCN` [1,3 propane diamine], the pK1 is listed as 10.5 and the pK2 was 8.8.

In the case of `CC(CN)CCCN` (stereo not drawn) [2-methyl 1,5 pentane diamine], the pK1 is 11.2 and the pK2 is listed as 10.0.

In the case of `CCC(N)CCN` (stereo not drawn) [1,3 pentane diamine], the pK1 is listed as 10.5 and the pK2 is 8.9.
